Source: PubChem BioAssay AID330 (DTP/NCI, 2004)
Values joined by “and” are separate entries in the source; they are usually repeats but may differ in a detail not shown here. Equal entries are not always repeated. Toxic doses and inconclusive results are not listed. The calls were made as follows: active = survival T/C of 150% or more; inactive = T/C below 125% in these data. Peptide text beside a SMILES is read from it. * marks the point of attachment. OtBu = CC(C)(C)O*

Tested on: P388 leukemia ip, CD2F1 mice, survival T/C
Test: NCI In Vivo Anticancer Drug Screen. Data for tumor model P388 Leukemia (intraperitoneal) in CD2F1 (CDF1) mice
Conditions: endpoint: median survival time, higher = longer survival
In short: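 Mice carrying the transplanted tumor received test compound or vehicle. Survival was recorded in each group, and the value is the treated-group measurement divided by that of the vehicle-treated control group.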

[1] = dose: 50.0 mg/kg/injection, schedule: Q01DX009 (ip), vehicle: saline with Tween-80
[2] = dose: 25.0 mg/kg/injection, schedule: Q01DX009 (ip), vehicle: saline with Tween-80
[3] = dose: 60.0 mg/kg/injection, schedule: Q01DX005 (ip), vehicle: Klucel (hydroxypropylcellulose) (HPC)
[4] = dose: 120.0 mg/kg/injection, schedule: Q01DX005 (ip), vehicle: Klucel (hydroxypropylcellulose) (HPC)
[5] = dose: 240.0 mg/kg/injection, schedule: Q01DX005 (ip), vehicle: Klucel (hydroxypropylcellulose) (HPC)
[6] = dose: 50.0 mg/kg/injection, schedule: Q01DX005 (ip), vehicle: Klucel (hydroxypropylcellulose) (HPC)
[7] = dose: 100.0 mg/kg/injection, schedule: Q01DX005 (ip), vehicle: Klucel (hydroxypropylcellulose) (HPC)
[8] = dose: 200.0 mg/kg/injection, schedule: Q01DX005 (ip), vehicle: Klucel (hydroxypropylcellulose) (HPC)
[9] = dose: 100.0 mg/kg/injection, schedule: Q01DX009 (ip), vehicle: saline with Tween-80
[10] = dose: 50.0 mg/kg/injection, schedule: Q01DX005 (ip), vehicle: saline with Tween-80
[11] = dose: 100.0 mg/kg/injection, schedule: Q01DX005 (ip), vehicle: saline with Tween-80
[12] = dose: 200.0 mg/kg/injection, schedule: Q01DX005 (ip), vehicle: saline with Tween-80
[13] = dose: 60.0 mg/kg/injection, schedule: Q01DX005 (ip), vehicle: saline with Tween-80
[14] = dose: 120.0 mg/kg/injection, schedule: Q01DX005 (ip), vehicle: saline with Tween-80
[15] = dose: 240.0 mg/kg/injection, schedule: Q01DX005 (ip), vehicle: saline with Tween-80

Measured: T/C

CSC(=S)N/N=C(\c1ccccc1)c1ccccn1
inactive: dose: 6.25 mg/kg/injection, schedule: Q01DX009 (ip), vehicle: saline with Tween-80 96 % of control | dose: 12.5 mg/kg/injection, schedule: Q01DX009 (ip), vehicle: saline with Tween-80 89 % of control and 97 % of control | [1] 92 % of control

CS(C)=NC(=Nc1ccc(Cl)cc1)c1ccccc1
inactive: [2] 95 % of control | [1] 106 % of control

Cc1cccc(N2CCN(c3ccc4nonc4c3[N+](=O)[O-])CC2)c1
inactive: dose: 50.0 mg/kg/injection, schedule: Q01DX009 (ip), vehicle: suspension in saline 98 % of control | dose: 100.0 mg/kg/injection, schedule: Q01DX009 (ip), vehicle: suspension in saline 92 % of control and 95 % of control | dose: 200.0 mg/kg/injection, schedule: Q01DX009 (ip), vehicle: suspension in saline 89 % of control and 90 % of control

Cc1nc2nc[nH]n2c1N=Nc1ccccc1
inactive: [3] 98 % of control | [4] 95 % of control | [5] 107 % of control

CC(C)CC(NC(=O)C(Cc1ccccc1)NC(=O)C1CCCN1)C(=O)OC(C)(C)C (stereo not drawn) (H-Pro-Phe-Leu-OtBu; configuration not given here)
inactive: [6] 102 % of control | [7] 94 % of control | [8] 94 % of control

COC(=O)c1ccccc1S(=O)(=O)N1CCOCC1
inactive: [6] 99 % of control | [7] 99 % of control | [8] 98 % of control

CCCSCCSCCC
inactive: [2] 91 % of control | [1] 100 % of control | [9] 95 % of control

O=C1CSC(c2ccc(Cl)cc2)N1N1C(=O)CSC1c1ccc(Cl)cc1 (stereo not given)
inactive: [3] 99 % of control | [4] 91 % of control | [5] 90 % of control

CC(C)=CCC(O)C1=CC(=O)c2c(O)ccc(O)c2C1=O (stereo not given)
inactive: dose: 0.5 mg/kg/injection, schedule: Q01DX009 (ip), vehicle: saline with Tween-80 102 % of control | dose: 1.0 mg/kg/injection, schedule: Q01DX009 (ip), vehicle: saline with Tween-80 110 % of control | dose: 1.25 mg/kg/injection, schedule: Q01DX009 (ip), vehicle: Klucel (hydroxypropylcellulose) (HPC) 107 % of control and 109 % of control and 110 % of control | dose: 2.0 mg/kg/injection, schedule: Q01DX009 (ip), vehicle: saline with Tween-80 110 % of control | dose: 2.5 mg/kg/injection, schedule: Q01DX009 (ip), vehicle: Klucel (hydroxypropylcellulose) (HPC) 107 % of control and 108 % of control and 112 % of control | dose: 2.5 mg/kg/injection, schedule: Q01DX009 (ip), vehicle: saline with Tween-80 102 % of control | dose: 5.0 mg/kg/injection, schedule: Q01DX009 (ip), vehicle: Klucel (hydroxypropylcellulose) (HPC) 117 % of control and 120 % of control | dose: 5.0 mg/kg/injection, schedule: Q01DX009 (ip), vehicle: saline with Tween-80 108 % of control | dose: 10.0 mg/kg/injection, schedule: Q01DX009 (ip), vehicle: Klucel (hydroxypropylcellulose) (HPC) 110 % of control and 120 % of control | dose: 15.0 mg/kg/injection, schedule: Q01DX009 (ip), vehicle: saline with Tween-80 100 % of control | dose: 15.0 mg/kg/injection, schedule: Q04DX003 (ip), vehicle: saline with Tween-80 100 % of control | dose: 30.0 mg/kg/injection, schedule: Q01DX009 (ip), vehicle: saline with Tween-80 90 % of control | dose: 30.0 mg/kg/injection, schedule: Q04DX003 (ip), vehicle: saline with Tween-80 109 % of control | [10] 97 % of control | [11] 91 % of control | [12] 99 % of control

Cc1c(-c2ccccc2)ccnc1/C=N/NC(N)=S
inactive: dose: 6.25 mg/kg/injection, schedule: Q01DX009 (ip), vehicle: saline 101 % of control | dose: 12.5 mg/kg/injection, schedule: Q01DX009 (ip), vehicle: saline 120 % of control | dose: 25.0 mg/kg/injection, schedule: Q01DX009 (ip), vehicle: saline 120 % of control | dose: 100.0 mg/kg/injection, schedule: Q01DX009 (ip), vehicle: saline 103 % of control

CC1(C)CC2(OC2c2ccccc2[N+](=O)[O-])C(=O)c2ccccc21 (stereo not given)
inactive: [9] 100 % of control | dose: 200.0 mg/kg/injection, schedule: Q01DX009 (ip), vehicle: saline with Tween-80 100 % of control | dose: 400.0 mg/kg/injection, schedule: Q01DX009 (ip), vehicle: saline with Tween-80 100 % of control

CCOC(=O)c1ccc(N=Cc2cccc([N+](=O)[O-])c2)cc1
inactive: [13] 91 % of control | [14] 89 % of control | [15] 90 % of control

CCC1(/C=N/NC(N)=S)NC(=O)NC1=O (stereo not given)
inactive: [10] 93 % of control | [11] 89 % of control | [12] 94 % of control

C=C(c1ccc(Cl)cc1)c1ccc(OC)c(OC)c1
inactive: [10] 94 % of control | [11] 99 % of control | [12] 97 % of control

COC(SC)c1cc(-c2c(Cl)cccc2Cl)no1 (stereo not given)
inactive: [13] 93 % of control | [14] 103 % of control | [15] 107 % of control

Cn1c2ccccc2c2oc(CO)cc(=O)c21
inactive: [3] 95 % of control | [4] 89 % of control | [5] 91 % of control

Nc1ncnc(N)c1NC(=O)c1ccccc1
inactive: dose: 60.0 mg/kg/injection, schedule: Q01DX005 (ip), vehicle: suspension in saline 98 % of control | dose: 120.0 mg/kg/injection, schedule: Q01DX005 (ip), vehicle: suspension in saline 106 % of control

O=C(NC(Cc1ccc(I)cc1)C(=O)O)c1ccc(Br)cc1 (stereo not given)
inactive: dose: 12.5 mg/kg/injection, schedule: Q01DX005 (ip), vehicle: sodium bicarbonate 104 % of control | dose: 25.0 mg/kg/injection, schedule: Q01DX005 (ip), vehicle: sodium bicarbonate 100 % of control | [6] 98 % of control | dose: 50.0 mg/kg/injection, schedule: Q01DX005 (ip), vehicle: sodium bicarbonate 94 % of control | [7] 98 % of control | dose: 100.0 mg/kg/injection, schedule: Q01DX005 (ip), vehicle: sodium bicarbonate 90 % of control and 94 % of control | [8] 101 % of control

CN1C(NC(=O)C(C)(C)O)C(C)(C)C(C)(C)C1NC(=O)C(C)(C)O (stereo not given)
active: [14] 151 % of control
inactive: dose: 30.0 mg/kg/injection, schedule: Q01DX005 (ip), vehicle: saline with Tween-80 121 % of control | [13] 123 % of control | [15] 123 % of control

CC1CC(=O)OC(C(=O)c2ccccc2)N1c1ccc(C(F)(F)F)cc1N (stereo not given)
inactive: [13] 110 % of control | [14] 108 % of control | [15] 109 % of control

O=c1[nH]c2ccccc2c(=O)n1-c1ccco1
inactive: dose: 100.0 mg/kg/injection, schedule: Q04DX002 (ip), vehicle: saline 100 % of control | dose: 200.0 mg/kg/injection, schedule: Q04DX002 (ip), vehicle: saline 102 % of control | dose: 400.0 mg/kg/injection, schedule: Q04DX002 (ip), vehicle: saline 101 % of control

c1ccc(OCCNCCOc2ccccc2)cc1
inactive: [3] 104 % of control | [4] 98 % of control | [5] 103 % of control

O=C(NC(Cc1ccc(I)cc1)C(=O)O)c1cccc(Cl)c1 (stereo not given)
inactive: [6] 99 % of control | [7] 108 % of control | [8] 108 % of control

O=C1CC[C@@H]2N1CC2(O)c1ccccc1 (mixture of isomers)
inactive: [6] 96 % of control | [7] 93 % of control | [8] 93 % of control

C/C(=N\N=C/N(C)S(C)(=O)=O)c1ccccc1
inactive: [6] 104 % of control | [7] 104 % of control | [8] 99 % of control

CCc1ccc2c(-c3ccccc3)c3c(-c4ccccc4)c4ccccc4c(-c4ccccc4)c3c(-c3ccccc3)c2c1
inactive: dose: 12.5 mg/kg/injection, schedule: Q01DX005 (ip), vehicle: saline with Tween-80 99 % of control | dose: 25.0 mg/kg/injection, schedule: Q01DX005 (ip), vehicle: saline with Tween-80 91 % of control | [10] 98 % of control and 88 % of control

CCCNC(=O)/C(C)=C(\C)c1ccccc1
inactive: dose: 50.0 mg/kg/injection, schedule: Q04DX003 (ip), vehicle: Klucel (hydroxypropylcellulose) (HPC) 100 % of control | dose: 100.0 mg/kg/injection, schedule: Q04DX003 (ip), vehicle: Klucel (hydroxypropylcellulose) (HPC) 99 % of control | dose: 200.0 mg/kg/injection, schedule: Q04DX003 (ip), vehicle: Klucel (hydroxypropylcellulose) (HPC) 100 % of control

ClCCN(CCCl)c1ccc(CNCCCNCc2ccc(N(CCCl)CCCl)cc2)cc1
inactive: dose: 5.0 mg/kg/injection, schedule: Q01DX009 (ip), vehicle: saline sonified 95 % of control
active: dose: 2.5 mg/kg/injection, schedule: Q01DX009 (ip), vehicle: saline sonified 152 % of control
